# Measurements reported in patent US20200276181A1, “THIENOISOQUINOLINES AND THEIR DERIVATIVES FOR TARGETING TUBULIN, CH-TOG, AURORA A KINASE, TPX2, CDK5RAP2 AND/OR ASPM” (VALORBEC, SEC, priority 2017, published 2020).
# Experiments:
# HFF1 cells = test: Percentage of mitotic cells, paclitaxel +/- C75; format: cell-based; conditions: 200 nM C75 + paclitaxel
# Method: (§1) FIG. 3A) is a line graph showing cytotoxicity of HeLa cells after treatment with varying concentrations of C75+/−a subthreshold dose of paclitaxel (Taxol™; 3 nM). The IC50 is shown by the dotted line. Bars show standard deviation. FIG. 3B) is a line graph showing the percentage of mitotic HeLa or HFF1 cells treated with a range of paclitaxel concentrations+/−C75 as indicated. The bars indicate standard deviation. FIG. 3C) is a series of bar graphs showing the proportion of HCT 116 cells with bipolar aligned (grey), bipolar misaligned (dark grey), multipolar/fragmented (light grey, top portion of each bar) or monopolar (black) spindles 7 hours after treatment with control (DMSO), varying concentrations of paclitaxel or C75, or both as indicated (n=691; N=3). The bars show standard deviation. The combination treatments were compared to paclitaxel and C75 on their own by calculating ratios varying from the predicted ratio, and found to synergize at 100 and 200 nM. FIG. 3D) is bar graph showing the average distance between centrosome fragments in HCT116 cells after treatments as shown. While centrosome fragments moved closer together with increased concentrations of paclitaxel, they moved further apart with increased concentrations of C75 (n=105; N=3). […]
# HCT 116 cells = test: Spindle phenotypes, paclitaxel and C75 combination; format: cell-based; conditions: 7 hours, at 100 and 200 nM
# Method: as §1
# HFF-1 cells = test: Spindle phenotypes, fixed cells stained for γ-tubulin and ACA; format: cell-based; conditions: 300 nM for 4 hours
# Excerpt: (§2) For each condition, 20,000 cells were counted per replicate (N=3). Line graphs (right) were made to better illustrate the relative changes in the cell cycle phases for the different treatments. Bars show standard deviation. The asterisks indicate the first statistically significant change in the G0/G1 and G2/M populations determined by a two-way ANOVA with a post-hoc Tukey's multiple comparisons test using 95% confidence intervals. FIG. 2B) is a line graph showing the percentage of HCT116 (p53−/−) cells, A549 cells, HeLa cells and H1299 cells in mitosis after treatment with various concentrations of C75 for one population doubling time. All of the cell lines show an increase in the proportion of mitotic cells after treatment with 200 nM C75. The bars indicate standard deviation. […] While the mitotic spindles were not dramatically altered by C75 in HFF1 cells, they were monopolar (as shown) or fragmented in the other cell types. […] The mitotic spindles were more strongly fragmented after C75 treatment in these cells vs. the cells in FIG. 2C). FIG. 2E) are images showing fixed HFF1, HeLa, A549 and HCT 116 cells co-stained for γ-tubulin (spindle poles; white) and ACA (centromeres; light grey) 4 hours after treatment with 300 nM C87 (control) or 300 nM C75. Cartoon schematics show examples of the different spindle phenotypes, including bipolar with aligned chromosomes (top), bipolar with misaligned chromosomes (upper middle), multipolar/fragmented (lower middle), or monopolar (bottom), and the proportion of that phenotype is shown in the top right corner of each image. FIG. 2F) is a bar graph showing the proportion of the different spindle phenotypes for HFF1, HeLa, A549 and HCT 116 cells treated as in FIG. 2E) (n=1355; N=3). Bars show standard deviation. […] While mitotic spindles recovered bipolarity after removing nocodazole, they remained multipolar after removing C75. […] FIG. 2J) is a bar graph showing the proportion of cells with monopolar (black), bipolar (dark grey) or multipolar (light grey) spindles. Bars show standard deviation. FIG. 2K) is a series of time-lapse images of a live HeLa cell expressing GFP:tubulin after treatment with C75 as shown in 2G). […] Drugs were not washed out. […]
# (§3) C75 was also tested for efficacy in different cancer cell lines. […] To further assess the role of C75 in disrupting spindles, HeLa cells were treated with 300 nM C75 for 4 hours and the spindle phenotypes were analyzed in more detail (FIG. 2E). […] To assess the affect of C75 on centrosomes, HeLa cells were treated with C75 or nocodazole (a drug that causes microtubule depolymerization as a control) for a short period of time (5 minutes), then the drugs were removed and the cells were analyzed for spindle phenotypes (schematic in FIG. 2G). […]
# HCT116 cells = test: as above; format: cell-based; conditions: 300 nM for 4 hours
# Excerpt: as §2, §3
# HeLa cells = test: Percentage of mitotic cells, nocodazole +/- C75; format: cell-based, human; conditions: 200 nM C75 + 33 or 66 nM nocodazole
# [1] = tested on: HeLa cells with lower levels of endogenous ch-TOG (ch-TOG RNAi); test: Spindle phenotypes with ch-TOG RNAi; format: cell-based, human; conditions: 200 nM C75 or 20 nM colchicine
# Excerpt: FIG. 7B) is a bar graph showing the proportion of phenotypes of the HeLa cells observed in the different conditions listed in 7A) (bipolar spindles in light grey; bipolar spindles with misaligned chromosomes in dark grey; multipolar/fragmented spindles in hatched lines; monopolar spindles in black).
smiles,measurement,setting,value
COc1ccc(S(=O)(=O)N2Cc3ccccc3-c3sc(Br)cc32)cc1 [Compound C75],effect on non-cancerous cells treated with paclitaxel,HFF1 cells,protective effect
same,"combination with paclitaxel vs each alone, spindle phenotypes",HCT 116 cells,synergize
same,cells with bipolar spindles with aligned chromosomes,HFF-1 cells,88%
same,cells with bipolar spindles with misaligned chromosomes,HCT116 cells,22%
same,cells with monopolar spindles,HCT116 cells,35%
same,cells with multipolar or fragmented spindles,HCT116 cells,13%
same,change in proportion of mitotic cells,HeLa cells,large change
same,"interaction with ch-TOG RNAi, fragmented spindle phenotype",[1],additive effect
